System: pancreatin (Panzytrat 40,000)
Method: Both media are from the company Biorelevant®, Ltd. in Great Britain. In addition, in some experiments porcine pancreas is added (Panzytrat® 40,000, Fa. Allergan).
The pancreatin is used in the form of the commercially available product Panzytrat® 40,000 from the Allergan company. The whole mixture is stirred on a hot plate at 50° C.; the course of the reaction is determined and monitored by continuously recording the acid number over time.

Row | Substance | cleavage by pancreatin to the free 3-hydroxybutyric acid
1 | 3-BHB-di-diglycerol ester | cleaved by pancreatin to the free 3-hydroxybutyric acid
2 | 3-BHB-mono-diglycerol ester | cleaved by pancreatin to the free 3-hydroxybutyric acid
3 | 3-BHB-tri-diglycerol ester | cleaved by pancreatin to the free 3-hydroxybutyric acid

— patent US12415774B2, “Polyol-based esters of hydroxycarboxylic acids” (KetoLipix Therapeutics GmbH, priority 2019, dated 2025)
